A value given as a limit tells only on which side of the number the result lay.

In patent publication US10669283B2, “Compound and pharmacologically acceptable salt thereof” (MEIJI SEIKA PHARMA CO., LTD., priority 2016, dated 2020) one finds IC50 data, which are given here for 33 compounds.

In the assay the test system is PDE4. Briefly: PDE4 inhibition, scintillation proximity assay (SPA).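 Note: A below 100 nM B 100 to below 1000 nM C 1000 nM or more.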 The assay is classed as biochemical. The conditions noted are these: scintillation proximity assay (SPA); evaluated as classes A, B, C; read-out: PDE4 Inhibitory Activity (concentration for the inhibition rate of 50%). The essentials: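 Compound pre-diluted 1:10 in 50 mM Tris-HCl pH 7.4, 8.3 mM MgCl2, 1.7 mM EGTA, 3 mg/mL BSA, then incubated with PDE4 and [2,8-3H]-cAMP for 120 min at room temperature. Product captured on ZnSO4-containing YSi-SPA beads for 15 min; radioactivity counted against no-enzyme blank and DMSO control.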
Background: In a scintillation proximity assay essentially only radioactivity close to the scintillant gives light.
For the compound `FC(F)(F)COC(c1cc(-c2nccs2)c2oc(N3CC4CCC(C3)N4)nc2c1)C(F)(F)F` (stereo not drawn) [Example 146, 2-(3,8-Diazabicyclo[3.2.1]octan-3-yl)-7-(thiazol-2-yl)-5-(2,2,2-trifluoro-1-(2,2,2-trifluoroethoxy)ethyl)benzo[d]oxazole], the IC50 is under 100 nM. Turning to `COCCOC(c1cc(-c2nccs2)c2oc(N3CC4CCC(C3)N4)nc2c1)C(F)(F)F` (stereo not drawn) [Example 147, 2-(3,8-Diazabicyclo[3.2.1]octan-3-yl)-7-(thiazol-2-yl)-5-(2,2,2-trifluoro-1-(2-methoxyethoxy)ethyl)benzo[d]oxazole], the IC50 is under 100 nM.

`CCOC(c1cc(-c2nccs2)c2oc(N3CC4CCC(C3)N4)nc2c1)C(F)(F)F` (stereo not drawn) [Example 148, 2-(3,8-Diazabicyclo[3.2.1]octan-3-yl)-5-(1-ethoxy-2,2,2-trifluoroethyl)-7-(thiazol-2-yl)benzo[d]oxazole]: the IC50 was under 100 nM.

In the case of `OCCOC(c1cc(-c2nccs2)c2oc(N3CC4CCC(C3)N4)nc2c1)C(F)(F)F` (stereo not drawn) [Example 149, 2-(1-(2-(3,8-Diazabicyclo[3.2.1]octan-3-yl)-7-(thiazol-2-yl)benzo[d]oxazol-5-yl)-2,2,2-trifluoroethoxy)ethan-1-ol], the IC50 is under 100 nM. Then `CCOC(c1cc(-c2nccs2)c2oc(N3CC4CC(C3)N4)nc2c1)C(F)(F)F` (stereo not drawn) [Example 150, 2-(3,6-Diazabicyclo[3.1.1]heptan-3-yl)-5-(1-ethoxy-2,2,2-trifluoroethyl)-7-(thiazol-2-yl)benzo[d]oxazole], with under 100 nM; and `FC(F)(F)COC(c1cc(-c2nccs2)c2oc(N3CC4CC(C3)N4)nc2c1)C(F)(F)F` (stereo not drawn) [Example 151, 2-(3,6-Diazabicyclo[3.1.1]heptan-3-yl)-7-(thiazol-2-yl)-5-(2,2,2-trifluoro-1-(2,2,2-trifluoroethoxy)ethyl)benzo[d]oxazole], with under 100 nM.

In the case of `N#CCOC(c1cc(-c2nccs2)c2oc(N3CC4CC(C3)N4)nc2c1)C(F)(F)F` (stereo not drawn) [Example 152, 2-(1-(2-(3,6-Diazabicyclo[3.1.1]heptan-3-yl)-7-(thiazol-2-yl)benzo[d]oxazol-5-yl)-2,2,2-trifluoroethoxy)acetonitrile], the IC50 was under 100 nM. With `N#CCOC(c1cc(-c2nccs2)c2oc(N3CC4CCC(C3)N4)nc2c1)C(F)(F)F` (stereo not drawn) [Example 153, 2-(1-(2-(3,8-Diazabicyclo[3.2.1]octan-3-yl)-7-(thiazol-2-yl)benzo[d]oxazol-5-yl)-2,2,2-trifluoroethoxy)acetonitrile] the figure was under 100 nM; with `COCCOC(c1cc(-c2nccs2)c2oc(N3CC4CC(C3)N4)nc2c1)C(F)(F)F` (stereo not drawn) [Example 154, 2-(3,6-Diazabicyclo[3.1.1]heptan-3-yl)-7-(thiazol-2-yl)-5-(2,2,2-trifluoro-1-(2-methoxyethoxy)ethyl)benzo[d]oxazole], under 100 nM.

Regarding `CC(O)COC(c1cc(-c2nccs2)c2oc(N3CC4CCC(C3)N4)nc2c1)C(F)(F)F` (stereo not drawn) [Example 155, 1-(1-(2-(3,8-Diazabicyclo[3.2.1]octan-3-yl)-7-(thiazol-2-yl)benzo[d]oxazol-5-yl)-2,2,2-trifluoroethoxy)propan-2-ol], the IC50 is under 100 nM. Then `OC(O)(c1cc(-c2nccs2)c2oc(N3CC4CCCC(C3)N4)nc2c1)C(F)(F)F` [Example 156, 1-(2-(3,9-Diazabicyclo[3.3.1]nonan-3-yl)-7-(thiazol-2-yl)benzo[d]oxazol-5-yl)-2,2,2-trifluoroethane-1,1-diol], with under 100 nM; and `OC(O)(c1cc(-c2nccs2)c2oc(N3CC4CCC(C3)N4)nc2c1)C(F)(F)F` [Example 157, 1-(2-(3,8-Diazabicyclo[3.2.1]octan-3-yl)-7-(thiazol-2-yl)benzo[d]oxazol-5-yl)-2,2,2-trifluoroethane-1,1-diol], with under 100 nM. With `OC(O)(c1cc(-c2nccs2)c2oc(N3CC4CC(C3)N4)nc2c1)C(F)(F)F` [Example 158, 1-(2-(3,6-Diazabicyclo[3.1.1]heptan-3-yl)-7-(thiazol-2-yl)benzo[d]oxazol-5-yl)-2,2,2-trifluoroethane-1,1-diol] the figure was 100 to 1000 nM. Regarding `CC(O)(c1cc(-c2nccs2)c2oc(N3CC4CCC(C3)N4)nc2c1)C(F)(F)F` (stereo not drawn) [Example 159, 2-(2-(3,8-Diazabicyclo[3.2.1]octan-3-yl)-7-(thiazol-2-yl)benzo[d]oxazol-5-yl)-1,1,1-trifluoropropan-2-ol], the IC50 is under 100 nM. With `CC(O)(c1cc(-c2nccs2)c2oc(N3CC4CC(C3)N4)nc2c1)C(F)(F)F` (stereo not drawn) [Example 160, 2-(2-(3,6-Diazabicyclo[3.1.1]heptan-3-yl)-7-(thiazol-2-yl)benzo[d]oxazol-5-yl)-1,1,1-trifluoropropan-2-ol] the figure was under 100 nM; with `CC(O)(c1cc(-c2nccs2)c2oc(N3CC4CCCC(C3)N4)nc2c1)C(F)(F)F` (stereo not drawn) [Example 161, 2-(2-(3,9-Diazabicyclo[3.3.1]nonan-3-yl)-7-(thiazol-2-yl)benzo[d]oxazol-5-yl)-1,1,1-trifluoropropan-2-ol], under 100 nM. With `COC(C)(c1cc(-c2nccs2)c2oc(N3CC4CCCC(C3)N4)nc2c1)C(F)(F)F` (stereo not drawn) [Example 162] the figure was under 100 nM; with `CCOC(=O)c1cc(-c2nccs2)c2oc(N3CC4CCC(C3)N4)nc2c1C(F)(F)F` [Example 163, Ethyl 2-(3,8-diazabicyclo[3.2.1]octan-3-yl)-7-(thiazol-2-yl)-4-(trifluoromethyl)benzo[d]oxazole-5-carboxylate], under 100 nM. With `CCOC(=O)c1cc(-c2nccs2)c2oc(N3CC4CCCC(C3)N4)nc2c1C(F)(F)F` [Example 164, Ethyl 2-(3,9-diazabicyclo[3.3.1]nonan-3-yl)-7-(thiazol-2-yl)-4-(trifluoromethyl)benzo[d]oxazole-5-carboxylate] the figure was under 100 nM; with `CCOC(=O)c1cc(-c2nccs2)c2oc(N3CC4CC(C3)N4)nc2c1C(F)(F)F` [Example 165, Ethyl 2-(3,6-diazabicyclo[3.1.1]heptan-3-yl)-7-(thiazol-2-yl)-4-(trifluoromethyl)benzo[d]oxazole-5-carboxylate], under 100 nM; with `CC(C)(O)c1cc(-c2nccs2)c2oc(N3CC4CCCC(C3)N4)nc2c1C(F)(F)F` [Example 166, 2-(2-(3,9-Diazabicyclo[3.3.1]nonan-3-yl)-7-(thiazol-2-yl)-4-(trifluoromethyl)benzo[d]oxazol-5-yl)propan-2-ol], under 100 nM. Take `COCc1cc(-c2nccs2)c2oc(N3CC4CCC(C3)N4)nc2c1C(F)(F)F` [Example 167, 2-(3,8-Diazabicyclo[3.2.1]octan-3-yl)-5-(methoxymethyl)-7-(thiazol-2-yl)-4-(trifluoromethyl)benzo[d]oxazole]: the IC50 is under 100 nM. With `c1csc(-c2cc(CN3CCOCC3)cc3nc(N4CC5CCC(C4)N5)oc23)n1` [Example 168, 2-(3,8-Diazabicyclo[3.2.1]octan-3-yl)-5-(morpholinomethyl)-7-(thiazol-2-yl)benzo[d]oxazole] the figure was under 100 nM; with `CN(C)Cc1cc(-c2nccs2)c2oc(N3CC4CCC(C3)N4)nc2c1` [Example 169, 1-(2-(3,8-Diazabicyclo[3.2.1]octan-3-yl)-7-(thiazol-2-yl)benzo[d]oxazol-5-yl)-N,N-dimethylmethanamine], under 100 nM.

Regarding `OCc1cc(-c2nccs2)c2oc(N3CC4CCC(C3)N4)nc2c1C(F)(F)F` [Example 170, (2-(3,8-Diazabicyclo[3.2.1]octan-3-yl)-7-(thiazol-2-yl)-4-(trifluoromethyl)benzo[d]oxazol-5-yl)methanol], the IC50 was under 100 nM. Then `COC(C)(C)c1cc(-c2nccs2)c2oc(N3CC4CCC(C3)N4)nc2c1C(F)(F)F` [Example 171, 2-(3,8-Diazabicyclo[3.2.1]octan-3-yl)-5-(2-methoxypropan-2-yl)-7-(thiazol-2-yl)-4-(trifluoromethyl)benzo[d]oxazole], with under 100 nM; and `CC(C)(O)c1cc(-c2nccs2)c2oc(N3CC4CCC(C3)N4)nc2c1` [Example 172, 2-(2-(3,8-Diazabicyclo[3.2.1]octan-3-yl)-7-(thiazol-2-yl)benzo[d]oxazol-5-yl)propan-2-ol], with under 100 nM; and `CC(C)(O)c1cc(-c2nccs2)c2oc(N3CC4CC(C3)N4)nc2c1` [Example 173, 2-(2-(3,6-Diazabicyclo[3.1.1]heptan-3-yl)-7-(thiazol-2-yl)benzo[d]oxazol-5-yl)propan-2-ol], with under 100 nM. With `COC(C)(C)c1cc(-c2nccs2)c2oc(N3CC4CC(C3)N4)nc2c1` [Example 174, 2-(3,6-Diazabicyclo[3.1.1]heptan-3-yl)-5-(2-methoxypropan-2-yl)-7-(thiazol-2-yl)benzo[d]oxazole] the figure was under 100 nM. With `COC(C)(C)c1cc(-c2nccs2)c2oc(N3CC4CCC(C3)N4)nc2c1` [Example 175, 2-(3,8-Diazabicyclo[3.2.1]octan-3-yl)-5-(2-methoxypropan-2-yl)-7-(thiazol-2-yl)benzo[d]oxazole] the figure was under 100 nM; with `COC(C)(C)c1cc(-c2nccs2)c2oc(N3CC4CC(C3)N4)nc2c1C(F)(F)F` [Example 176, 2-(3,6-Diazabicyclo[3.1.1]heptan-3-yl)-5-(2-methoxypropan-2-yl)-7-(thiazol-2-yl)-4-(trifluoromethyl)benzo[d]oxazole], under 100 nM; with `CC(C)(O)c1cc(-c2nccs2)c2oc(N3CC4CCC(C3)N4)nc2c1C(F)(F)F` [Example 177, 2-(2-(3,8-Diazabicyclo[3.2.1]octan-3-yl)-7-(thiazol-2-yl)-4-(trifluoromethyl)benzo[d]oxazol-5-yl)propan-2-ol], under 100 nM. For `CC(C)(O)c1cc(-c2nccs2)c2oc(N3CC4CC(C3)N4)nc2c1C(F)(F)F` [Example 178, 2-(2-(3,6-Diazabicyclo[3.1.1]heptan-3-yl)-7-(thiazol-2-yl)-4-(trifluoromethyl)benzo[d]oxazol-5-yl)propan-2-ol], the IC50 is under 100 nM.
